# Results taken from patent US12441703B2, “Carboxamides as modulators of sodium channels” (VERTEX PHARMACEUTICALS INCORPORATED, priority 2019, dated 2025).
# Target: human NaV 1.8 (Homo sapiens, UniProt Q9Y5Y9)
# Test: E-VIPR assay for detecting and measuring NaV inhibition properties
# Format: cell-based
# Conditions: E-VIPR assay conducted in the presence of human serum; HEK cells expressing truncated human NaV 1.8; read-out: IC50
# Outline: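 HEK cells with truncated human NaV1.8 plus KIR2.1 BacMam, hexyl dye loaded 20 min, compound 30 min at room temperature, 11-point 3-fold series […], 0.625% DMSO, with or without human serum. E-VIPR biphasic stimulation at 10 Hz for 10 s; membrane-potential response read as normalized coumarin/oxonol ratio.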
# human NaV 1.8, sequence (Q9Y5Y9 whole entry, looked up): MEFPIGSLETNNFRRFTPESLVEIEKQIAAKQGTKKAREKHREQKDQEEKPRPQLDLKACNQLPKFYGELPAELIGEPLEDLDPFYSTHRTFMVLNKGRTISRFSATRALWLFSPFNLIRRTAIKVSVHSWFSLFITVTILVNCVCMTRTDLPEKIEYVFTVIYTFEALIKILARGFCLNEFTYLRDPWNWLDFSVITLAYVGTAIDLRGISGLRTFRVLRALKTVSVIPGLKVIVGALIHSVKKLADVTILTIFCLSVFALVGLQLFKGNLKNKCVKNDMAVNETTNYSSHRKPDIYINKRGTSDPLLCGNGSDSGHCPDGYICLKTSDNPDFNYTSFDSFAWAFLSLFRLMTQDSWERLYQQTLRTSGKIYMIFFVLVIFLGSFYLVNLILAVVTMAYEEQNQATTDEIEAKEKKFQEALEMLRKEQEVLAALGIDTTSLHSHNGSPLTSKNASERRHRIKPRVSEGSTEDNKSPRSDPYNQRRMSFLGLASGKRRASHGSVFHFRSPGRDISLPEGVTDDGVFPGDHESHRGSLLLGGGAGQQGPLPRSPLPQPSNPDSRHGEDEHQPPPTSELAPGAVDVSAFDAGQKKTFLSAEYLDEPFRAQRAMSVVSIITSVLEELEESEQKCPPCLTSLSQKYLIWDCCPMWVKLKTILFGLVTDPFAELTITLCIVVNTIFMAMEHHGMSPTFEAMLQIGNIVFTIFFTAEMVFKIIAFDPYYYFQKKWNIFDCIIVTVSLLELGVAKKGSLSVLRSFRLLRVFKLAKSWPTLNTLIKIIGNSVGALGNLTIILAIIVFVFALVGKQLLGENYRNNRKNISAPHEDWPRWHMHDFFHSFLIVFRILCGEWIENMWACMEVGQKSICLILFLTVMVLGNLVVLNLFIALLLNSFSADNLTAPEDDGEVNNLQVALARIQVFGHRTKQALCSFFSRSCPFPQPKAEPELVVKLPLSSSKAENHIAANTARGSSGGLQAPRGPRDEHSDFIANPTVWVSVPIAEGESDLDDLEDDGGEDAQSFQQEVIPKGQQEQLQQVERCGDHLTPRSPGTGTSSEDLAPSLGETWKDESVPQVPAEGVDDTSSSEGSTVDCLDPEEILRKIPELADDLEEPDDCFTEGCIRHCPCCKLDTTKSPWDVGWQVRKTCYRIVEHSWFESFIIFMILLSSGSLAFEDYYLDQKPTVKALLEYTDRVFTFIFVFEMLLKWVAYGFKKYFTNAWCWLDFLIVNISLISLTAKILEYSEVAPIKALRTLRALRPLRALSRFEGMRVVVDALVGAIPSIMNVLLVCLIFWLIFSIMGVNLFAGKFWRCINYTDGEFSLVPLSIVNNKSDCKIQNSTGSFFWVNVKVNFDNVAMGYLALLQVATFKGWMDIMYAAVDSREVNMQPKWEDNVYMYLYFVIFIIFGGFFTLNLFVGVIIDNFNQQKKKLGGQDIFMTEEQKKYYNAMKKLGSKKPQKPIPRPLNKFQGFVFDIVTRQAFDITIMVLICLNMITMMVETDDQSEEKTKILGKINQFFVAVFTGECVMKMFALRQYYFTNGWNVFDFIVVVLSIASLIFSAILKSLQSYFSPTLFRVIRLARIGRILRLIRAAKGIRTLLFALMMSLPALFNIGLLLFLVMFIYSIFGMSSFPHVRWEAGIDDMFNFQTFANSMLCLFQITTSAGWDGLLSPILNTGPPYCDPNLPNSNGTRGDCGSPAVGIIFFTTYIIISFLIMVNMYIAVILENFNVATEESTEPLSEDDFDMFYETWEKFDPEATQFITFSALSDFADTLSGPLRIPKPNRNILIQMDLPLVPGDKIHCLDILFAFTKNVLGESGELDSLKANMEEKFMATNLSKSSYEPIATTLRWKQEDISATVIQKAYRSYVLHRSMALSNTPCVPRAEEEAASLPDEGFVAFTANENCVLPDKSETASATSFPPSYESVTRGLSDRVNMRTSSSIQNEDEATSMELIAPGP
row,SMILES,IC50 [µM]
1,"[2H]C([2H])([2H])Oc1cc(OC(F)(F)F)ccc1Oc1cc(C(F)(F)F)c(F)cc1C(=O)Nc1ccc(C(N)=O)nc1 [Compound 100, 5-[[5-fluoro-2-[2-(trideuteriomethoxy)-4-(trifluoromethoxy)phenoxy]-4-(trifluoromethyl)benzoyl]amino]pyridine-2-carboxamide]",0.63
2,"Cc1cc(F)ccc1Oc1ccc(C(F)(F)F)c(F)c1C(=O)Nc1ccc(C(N)=O)nc1 [Compound 101, 5-[[2-fluoro-6-(4-fluoro-2-methyl-phenoxy)-3-(trifluoromethyl)benzoyl]amino]pyridine-2-carboxamide]",0.525
3,"Cc1cc(F)ccc1Oc1ccc(C(F)(F)F)c(F)c1C(=O)Nc1ccnc(C(N)=O)c1 [Compound 102, 4-[[2-fluoro-6-(4-fluoro-2-methyl-phenoxy)-3-(trifluoromethyl)benzoyl]amino]pyridine-2-carboxamide]",0.036
4,"COc1cc(F)ccc1Oc1ccc(C(F)(F)F)c(F)c1C(=O)Nc1ccnc(C(N)=O)c1 [Compound 103, 4-[[2-fluoro-6-(4-fluoro-2-methoxy-phenoxy)-3-(trifluoromethyl)benzoyl]amino]pyridine-2-carboxamide]",0.013
5,"COc1cc(F)ccc1Oc1ccc(C(F)(F)F)c(F)c1C(=O)Nc1ccc(C(N)=O)nc1 [Compound 104, 5-[[2-fluoro-6-(4-fluoro-2-methoxy-phenoxy)-3-(trifluoromethyl)benzoyl]amino]pyridine-2-carboxamide]",0.38
6,"[2H]C([2H])([2H])Oc1cc(OC(F)(F)F)ccc1Oc1ccc(C(F)(F)F)cc1C(=O)Nc1ccnc(C(N)=O)c1 [Compound 105, 4-[[2-[2-(trideuteriomethoxy)-4-(trifluoromethoxy)phenoxy]-5-(trifluoromethyl)benzoyl]amino]pyridine-2-carboxamide]",0.073
7,[2H]C([2H])([2H])Oc1cc(OC(F)(F)F)ccc1Oc1ccc(C(F)(F)F)cc1C(=O)Nc1ccc(C(N)=O)nc1 [Compound 106],1.4
8,"NC(=O)c1cc(NC(=O)c2ccc(C(F)(F)F)cc2Oc2ccc(F)c(Cl)c2)ccn1 [Compound 107, 4-[[2-(3-chloro-4-fluoro-phenoxy)-4-(trifluoromethyl)benzoyl]amino]pyridine-2-carboxamide]",2.38
9,"CC(C)Oc1ccc(Oc2cc(C(F)(F)F)ccc2C(=O)Nc2ccnc(C(N)=O)c2)cc1Cl [Compound 108, 4-[[2-(3-chloro-4-isopropoxy-phenoxy)-4-(trifluoromethyl)benzoyl]amino]pyridine-2-carboxamide]",> 3
10,"NC(=O)c1cc(NC(=O)c2ccc(C(F)(F)F)cc2Oc2ccc(OC3CCCCC3)cc2)ccn1 [Compound 109, 4-[[2-[4-(cyclohexoxy)phenoxy]-4-(trifluoromethyl)benzoyl]amino]pyridine-2-carboxamide]",> 3
11,"NC(=O)c1cc(NC(=O)c2ccc(C(F)(F)F)cc2Oc2cccc(C3CCCCC3)c2)ccn1 [Compound 110, 4-[[2-(3-cyclohexylphenoxy)-4-(trifluoromethyl)benzoyl]amino]pyridine-2-carboxamide]",> 3
12,"NC(=O)c1cc(NC(=O)c2ccc(C(F)(F)F)cc2Oc2ccc(F)cc2F)ccn1 [Compound 111, 4-[[2-(2,4-difluorophenoxy)-4-(trifluoromethyl)benzoyl]amino]pyridine-2-carboxamide]",> 3
13,"CC(F)(F)c1cc(F)ccc1Oc1cc(C(F)(F)F)ccc1C(=O)Nc1ccnc(C(N)=O)c1 [Compound 112, 4-[[2-[2-(1,1-difluoroethyl)-4-fluoro-phenoxy]-4-(trifluoromethyl)benzoyl]amino]pyridine-2-carboxamide]",> 3
14,"Cc1cc(F)ccc1Oc1cc(C(F)(F)F)ccc1C(=O)Nc1ccnc(C(N)=O)c1 [Compound 113, 4-[[2-(4-fluoro-2-methyl-phenoxy)-4-(trifluoromethyl)benzoyl]amino]pyridine-2-carboxamide]",> 3
15,"[2H]C([2H])([2H])Oc1cc(OC(F)(F)F)ccc1Oc1ccc2c(c1C(=O)Nc1ccnc(C(N)=O)c1)OC(F)(F)O2 [Compound 114, 4-[[2,2-difluoro-5-[2-(trideuteriomethoxy)-4-(trifluoromethoxy)phenoxy]-1,3-benzodioxole-4-carbonyl]amino]pyridine-2-carboxamide]",0.51
16,[2H]C([2H])([2H])Oc1cc(OC(F)(F)F)ccc1Oc1ccc2c(c1C(=O)Nc1ccc(C(N)=O)nc1)OC(F)(F)O2 [Compound 115],> 3
17,"[2H]C([2H])([2H])Oc1cc(OC(F)(F)F)ccc1Oc1ccc(C(F)(F)F)c(C)c1C(=O)Nc1ccc(C(N)=O)nc1 [Compound 116, 5-[[2-methyl-6-[2-(trideuteriomethoxy)-4-(trifluoromethoxy)phenoxy]-3-(trifluoromethyl)benzoyl]amino]pyridine-2-carboxamide]",0.025
18,[2H]C([2H])([2H])Oc1cc(OC(F)(F)F)ccc1Oc1ccc(C(F)(F)F)c(C)c1C(=O)Nc1ccnc(C(N)=O)c1 [Compound 117],0.002
19,"COc1c(Oc2ccc(C(F)(F)F)c(F)c2C(=O)Nc2ccc(C(N)=O)nc2)ccc(F)c1F [Compound 118, 5-[[6-(3,4-difluoro-2-methoxy-phenoxy)-2-fluoro-3-(trifluoromethyl)benzoyl]amino]pyridine-2-carboxamide]",0.695
20,"COc1cc(OC(F)(F)F)ccc1Oc1cc(Br)cc(F)c1C(=O)Nc1ccnc(C(N)=O)c1 [Compound 119, 4-[[4-bromo-2-fluoro-6-[2-methoxy-4-(trifluoromethoxy)phenoxy]benzoyl]amino]pyridine-2-carboxamide]",0.008
21,"COc1c(Oc2ccc(C(F)(F)F)c(C)c2C(=O)Nc2ccnc(C(N)=O)c2)ccc(F)c1F [Compound 120, 4-[[6-(3,4-difluoro-2-methoxy-phenoxy)-2-methyl-3-(trifluoromethyl)benzoyl]amino]pyridine-2-carboxamide]",0.02
22,"Cc1c(C(F)(F)F)ccc(Oc2ccc(OC(C)C)c(F)c2F)c1C(=O)Nc1ccnc(C(N)=O)c1 [Compound 121, 4-[[6-(2,3-difluoro-4-isopropoxy-phenoxy)-2-methyl-3-(trifluoromethyl)benzoyl]amino]pyridine-2-carboxamide]",0.016
23,"Cc1c(C(F)(F)F)ccc(Oc2ccc(F)cc2Cl)c1C(=O)Nc1ccnc(C(N)=O)c1 [Compound 122, 4-[[6-(2-chloro-4-fluoro-phenoxy)-2-methyl-3-(trifluoromethyl)benzoyl]amino]pyridine-2-carboxamide]",0.025
24,"Cc1c(C(F)(F)F)ccc(Oc2ccc(OC(F)(F)F)cc2)c1C(=O)Nc1ccnc(C(N)=O)c1 [Compound 123, 4-[[2-methyl-6-[4-(trifluoromethoxy)phenoxy]-3-(trifluoromethyl)benzoyl]amino]pyridine-2-carboxamide]",0.053
25,"Cc1c(C(F)(F)F)ccc(Oc2ccc(OC(C)C)c(Cl)c2)c1C(=O)Nc1ccnc(C(N)=O)c1 [Compound 124, 4-[[6-(3-chloro-4-isopropoxy-phenoxy)-2-methyl-3-(trifluoromethyl)benzoyl]amino]pyridine-2-carboxamide]",0.016
26,"Cc1c(C(F)(F)F)ccc(Oc2ccc(F)c3c2OCC3)c1C(=O)Nc1ccnc(C(N)=O)c1 [Compound 125, 4-[[6-[(4-fluoro-2,3-dihydrobenzofuran-7-yl)oxy]-2-methyl-3-(trifluoromethyl)benzoyl]amino]pyridine-2-carboxamide]",0.14
